Tests used:
[1] = molecular target: T1, 15N-labelled EcDsbA (Escherichia coli, UniProt P0AEG4); assay: 2D 1H-15N HSQC chemical shift perturbation / titration; type: binding; details: for Ligand Efficiency: LE = −RTln(KD)/HAC, 298 K; for fold decrease in binding affinity: relative to 25
T1 construct: made in house; protein recovered from the periplasm of the expressing cells
Description: Compounds that passed at least one ligand-detected NMR experiment were further validated by 2D ^1H-^15N heteronuclear single quantum coherence (HSQC) spectroscopy. In HSQC experiments, chemical shift perturbations (CSP) of backbone amide resonances of ^15N-labelled EcDsbA were measured upon addition of compound at 1 mM. […] In accordance with the crystal structure, the majority of the residues perturbed by 1 mM of benzofuran analogues in single-point HSQCs are located around the hydrophobic groove which is an important binding site for DsbA substrates (Figure 2A). […] Eight compounds produced large enough CSP (>0.04 ppm) to enable HSQC titration and KD determination.
For the 2D ^1H-^15N-HSQC titration experiment, 100 µM of ^15N-labelled EcDsbA in a buffer of 50 mM HEPES, pH 6.8, 50 mM NaCl, 2% ^2H6-DMSO, and 10% ^2H2O, was titrated with increasing concentrations of compounds ([…], 0.125, 0.25, 0.5, and 1 mM). Data were acquired on a Bruker 600 MHz spectrometer equipped with a 5 mm TXI CryoProbe and a Bruker 700 MHz spectrometer equipped with a 5 mm TXI CryoProbe. Data was processed by Topspin3.5 (Bruker) and analysed by Sparky (T. D. Goddard and D. G. Kneller, SPARKY 3, University of California, San Francisco (UCSF)). Weighted chemical shift perturbations (CSP) that were observed upon addition of compounds to EcDsbA were calculated using an Equation (1) in [41]: (1) CSP=ΔδH^2+(0.2×ΔδN)^2 where ΔδH and ΔδN denote the change in chemical shift of amide proton and nitrogen resonances upon addition of the compound. Equilibrium dissociation constants (KD) were determined by fitting the plot of CSP against compound concentrations using one site with ligand depletion model (Equation (2)): (2) CSP=CSPmax×[(KD+Pt+Lt)−((KD+Pt+Lt)^2−4×Pt×Lt)]/2×Pt where CSP is the measured CSP at a given concentration, CSPmax is the CSP observed at the saturating concentration of compound, and Pt and Lt are the total protein and compound concentrations. The ligand efficiency (LE) is calculated using the Equation (3) in [42]: (3) LE=−ΔG/HAC=−RTln(KD)/HAC where R is gas constant (1.9858775 cal K^−1 mol^−1), T is temperature (298 K), KD is equilibrium dissociation constant, and HAC is the number of heavy (non-hydrogen) atoms.

[2] = molecular target: T2, EcDsbA (Escherichia coli, UniProt P0AEG4); assay: waterLOGSY ligand-detected NMR binding; details: compound 500 µM, unlabelled EcDsbA 10 µM, 298 K
T2 construct: made in house; protein recovered from the periplasm of the expressing cells
Description: (§1) To validate the binding of benzofuran analogues, three ligand-detected NMR methods, saturation-transfer difference (STD), Carr–Purcell–Meiboom–Gill (CPMG), and water–ligand observed via gradient spectroscopy (waterLOGSY), were employed to detect protein-ligand binding between the benzofurans and EcDsbA (Figure 2C). These experiments were designed as a primary screening tool to select analogues to undergo further affinity evaluation and prioritise compounds for crystal soaking. […] In a good agreement with this finding, eight out of nine benzofurans that passed all three ligand-detected experiments have their co-crystal structures successfully solved; in contrast, five compounds that failed two ligand-detected experiments only have one co-structure solved (Table 2).
(§2) For ligand-detected NMR spectroscopy, two samples (compound alone and compound + protein) were prepared for each compound. Unlabelled EcDsbA was prepared at 10 µM in a buffer of 50 mM sodium phosphate, pH 6.8, 25 mM NaCl, 100 µM 4,4-dimethyl 4-silapentane-1-sulfonic acid (DSS), and 10% ^2H2O. Compound was added to the protein sample to achieve final concentration of 500 µM (2% ^2H6-DMSO). ^1H 1D spectrum was acquired for each compound at 500 µM as a reference spectrum. All ligand-detected NMR experiments (STD, CPMG, and waterLOGSY) were acquired at 298 K on a Bruker Avance III 600 MHz NMR spectrometer equipped with a 5 mm TXI CryoProbe (Bruker, Billerica, MA, USA). STD spectra were acquired with 3 s of saturation at 1 ppm (on-resonance) and 33.3 ppm (off-resonance). WaterLOGSY spectra were acquired for compound alone and compound + protein with a 0.52 s acquisition time, 3 s relaxation delay, and 3 s Nuclear Overhauser effect (NOE) mixing time. CPMG spectra for compound alone and compound + protein were acquired with a constant spin echo delay of 1 ms and spin-lock period of 350 ms. The data was analysed using Topspin3.5 (Bruker) and DSS was used to reference the spectra.

[3] = molecular target: T2, EcDsbA; assay: CPMG ligand-detected NMR binding; details: compound 500 µM, unlabelled EcDsbA 10 µM, 298 K, spin-lock 350 ms
Description: as §1, §2

[4] = molecular target: T2, EcDsbA; assay: STD ligand-detected NMR binding; details: compound 500 µM, unlabelled EcDsbA 10 µM, 298 K
Description: as §1, §2

[5] = molecular target: T2, EcDsbA; assay: Compound soaking into EcDsbA crystals and X-ray diffraction; type: binding; details: crystals soaked with compound at 10 mM (5% DMSO) for 3–6 h
Description: The synthesised analogues were soaked into crystals of EcDsbA and X-ray diffraction data was collected for each analogue in order to determine their site of binding. […] The carboxy moiety of 15 was oriented towards the left-hand side of the binding groove, where more polar residues are located. The phenyl ring of the aniline moiety occupied the hydrophobic end of the binding pocket with the nitrogen atom of the amine linker positioned in close proximity to Gln35. […] Although anisidine 16 was occupying a larger region of the EcDsbA binding groove, the shift appeared to have interrupted the π-stacking interactions the benzofuran was making with the His32 side chain previously (Figure 1B and Figure S1).
EcDsbA was crystallised as previously described. Briefly, 1 µL of 30 mg/mL EcDsbA was mixed with an equal volume of crystallisation buffer (11–13% PEG8000, 5–7.5% glycerol, 1 mM CuCl2, 100 mM, sodium cacodylate pH 6.1) and equilibrated against 500 µL of reservoir buffer at 20 °C using hanging drop vapour diffusion. For compound soaking, crystals were transferred into 2 µL drops of 24% PEG8000, 22% glycerol, and 100 mM sodium cacodylate (pH 6.1) containing a compound of interest at the final concentration of 10 mM (5% DMSO) and were incubated for 3–6 h. Crystals were mounted on loops and flash-cooled in liquid nitrogen.
Datasets were collected at the Australian synchrotron on MX1 and MX2 beamlines using the Blue-Ice software (Irvine, CA, USA). MX1 beamline was equipped with an ADSC Quantum 210r detector and MX2 with an ADSC Quantum 315r detector. All datasets were indexed and integrated with iMOSFLM [32] or XDS [33]—and scaled using AIMLESS [34, 35] or SCALA [36]. Phasing was performed by molecular replacement with Phaser using the previously solved structure of EcDsbA as a search model (PDB code 1FVK). The final structure was obtained after several rounds of manual model building using Coot and refinement in phenix.refine. Structures, factors and coordinates have been deposited in the Protein Data Bank (PDB; http://www.pdb.org) under the accession codes of 6PMF, 6POQ, 6POH, 6PML, 6PVY, 6POI, and 6PVZ.

T1 sequence (P0AEG4 20-208): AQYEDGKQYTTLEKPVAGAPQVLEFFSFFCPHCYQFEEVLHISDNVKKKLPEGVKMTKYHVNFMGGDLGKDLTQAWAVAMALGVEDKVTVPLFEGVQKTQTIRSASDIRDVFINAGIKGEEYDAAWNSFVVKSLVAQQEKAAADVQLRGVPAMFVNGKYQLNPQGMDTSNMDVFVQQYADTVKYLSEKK
T2 sequence (P0AEG4 20-208): as above

| SMILES | melting point | affinity to EcDsbA ([1]; fragment hit from biophysical screening) | wLOGSY [2] | CPMG [3] | STD [4] | Kd [1] | Ligand Efficiency [1] | Crystal Structure in EcDsbA [5] | fold decrease in binding affinity [1] | chemical shift perturbations (CSP) of hydrophobic groove residues ([1]; single-point HSQC, compound at 1 mM) |
| --- | --- | --- | --- | --- | --- | --- | --- | --- | --- | --- |
| O=C(O)C(NS(=O)(=O)c1ccccc1)c1coc2cc(Br)ccc12 (stereo not drawn) | 179 to 182 °C |  |  |  |  |  |  |  |  |  |
| O=C(O)Cc1coc2cc(Br)ccc12 [compound 6, 2-(6-Bromobenzofufran-3-yl)acetic acid] |  | high mM affinity |  |  |  |  |  |  |  |  |
| COc1ccc(Nc2ccc3c(CC(=O)O)coc3c2)cc1 [compound 16, 2-(6-((4-Methoxyphenyl)amino)benzofuran-3-yl)acetic acid] | 120 to 122 °C |  | Pass | Pass | Fail | 2700 ± 920 µM | 0.16 kcal mol^−1 HAC^−1 | Yes |  |  |
| CCCCOc1ccc2c(CC(=O)O)coc2c1 [compound 21, 2-(6-Butoxybenzofuran-3-yl)acetic acid] | 108 to 109 °C |  | Pass | Pass | Pass | 1970 ± 640 µM | 0.20 kcal mol^−1 HAC^−1 | Yes | six-fold decrease |  |
| CC(C)COc1ccc2c(CC(=O)O)coc2c1 [compound 22, 2-(6-Isobutoxybenzofuran-3-yl)acetic acid] |  |  | Fail | Pass | Fail |  |  | Yes |  | too small to determine KD |
| O=C(O)Cc1coc2cc(OCc3ccccc3)ccc12 [compound 23] | 153 to 155 °C |  | Pass | Pass | Pass | 820 ± 140 µM | 0.20 kcal mol^−1 HAC^−1 | Yes |  |  |
| O=C(O)Cc1coc2ccc(OCc3ccccc3)cc12 [compound 24, 2-(5-(Benzyloxy)benzofuran-3-yl)acetic acid] | 147 to 149 °C |  |  |  |  |  |  | did not show clear enough electron density |  |  |
| O=C(O)Cc1coc2cc(Oc3ccccc3)ccc12 [compound 25, 2-(6-Phenoxybenzofuran-3-yl)acetic acid] |  |  | Pass | Pass | Pass | 326 ± 25 µM | 0.24 kcal mol^−1 HAC^−1 | Yes |  |  |
| COc1cccc(Oc2ccc3c(CC(=O)O)coc3c2)c1 [compound 26, 2-(6-(3-Methoxyphenoxy)benzofuran-3-yl)acetic acid] |  |  | Pass | Pass | Pass | 639 ± 87 µM | 0.20 kcal mol^−1 HAC^−1 |  | 2 fold |  |
| O=C(O)Cc1coc2cc(Cc3ccccc3)ccc12 [compound 28, 2-(6-Benzylbenzofuran-3-yl)acetic acid] | 124 to 127 °C |  | Pass | Pass | Pass | 341 ± 47 µM | 0.24 kcal mol^−1 HAC^−1 | Yes |  |  |
| Brc1ccc2c(Cc3nnn[nH]3)coc2c1 [compound 31, 5-((6-Bromobenzofuran-3-yl)methyl)-1H-tetrazole] |  |  | Pass | Pass | Pass |  |  | did not produce electron density and No |  |  |
| O=C(O)Cc1c[nH]c2cc(Br)ccc12 [compound 34, 2-(6-Bromo-1H-indol-3-yl)acetic acid] |  |  |  |  |  |  |  | lack of electron density |  |  |
| O=C(O)Cc1c[nH]c2cc(-c3ccccc3)ccc12 [compound 36, 2-(6-Phenyl-1H-indol-3-yl)acetic acid] |  |  | Pass | Pass | Pass |  |  | lack of electron density and No |  |  |
| CC(=O)NC(C(=O)O)c1coc2cc(Br)ccc12 (stereo not drawn) [compound 46, 2-Acetamido-2-(6-bromobenzofuran-3-yl)acetic acid] | 194 to 196 °C |  | Pass | Fail | Fail |  |  | No |  |  |
| O=C(NC(C(=O)O)c1coc2cc(Br)ccc12)c1ccccc1 (stereo not drawn) [compound 47, 2-Benzamido-2-(6-bromobenzofuran-3-yl)-2-acetic acid] | 209 to 212 °C |  | Pass | Fail | Fail |  |  | No |  |  |
| COc1ccc(CC(=O)NC(C(=O)O)c2coc3cc(Br)ccc23)cc1 (stereo not drawn) [compound 48, 2-(6-Bromobenzofuran-3-yl)-2-(2-(4-methoxyphenyl)acetamido)acetic acid] | 159 to 161 °C |  | Pass | Fail | Fail | 1350 ± 420 µM | 0.15 kcal mol^−1 HAC^−1 | No |  |  |
| CS(=O)(=O)NC(C(=O)O)c1coc2cc(Br)ccc12 (stereo not drawn) [compound 50, 2-(6-Bromobenzofuran-3-yl)-2-(methylsulfonamido)acetic acid] | 140 to 142 °C |  | Pass | Pass | Pass |  |  | Yes |  |  |
